Experimental data from patent EP4353225A1, “NUTRACEUTICAL OR PHARMACEUTICAL COMPOSITION FOR THE TREATMENT OF PELVIC PAIN” (Erbozeta S.p.A., priority 2022, dated 2024).

Columns and labels:
[1] = test system: GM-CSF; assay: Cytokine array (23 human cytokines) in T24 bladder urothelium cells exposed to THP-1 conditioned media: GM-CSF; type: cell-based; settings: T24 cells 4 h
Protocol: (§1) Based on the results of the cytotoxicity experiments, the medium conditioned on THP-1 to be used to study the possible anti-inflammatory activity on the bladder urothelium was obtained by exposing for 2 h the differentiated THP-1 cells to the concentrations of the three functional ingredients and the MIX corresponding to 600, 400, 200, 100, 50 and 25 µg/mL for the MICRONIZED PEA, 15, 10, 5, 2.5, 1.25, 0.625 µg/mL for the DRY MARITIME PINE EXTRACT, 75, 50, 25, 12.5, 6.25, 3.125 µg/mL for HEMP OIL and 690, 460, 230, 115, 57.5 and 28.75 µg/mL for the MIX, respectively. At the end of this incubation, the cells were treated for a further 6 h with the inflammatory stimulus E. coli in the presence of the different treatments. Cells exposed only with the inflammatory stimulus in the absence of pre-treatment were used as a positive control of inflammation.
(§2) The specific anti-inflammatory activity on the bladder urothelium of the three functional ingredients and the MIX was evaluated on an in vitro bladder urothelium epithelium composed of the T24 cell line (ATCC HTB-4TM). T24 cells were exposed for 4 h to conditioned media obtained by treating THP-1 cells differentiated into macrophages with different concentrations of the functional ingredients and MIX, and in the presence of E. coli. At the end of treatment, T24 cells were detached with trypsin, centrifuged, and lysed by sonication in lysis buffer. The supernatant obtained following centrifugation at 10,000 g for 10 min at 4 °C was stored at -80 °C. An extended analysis of the impact of functional ingredients and MIX on inflammation was performed using an assay for the determination of the transcription factor Nf-kB (Abcam) and the evaluation of the expression of pro-inflammatory cytokines with an array of 23 human cytokines (Raybiotech), following the manufacturer's instructions. The cytokines interleukin 1β (IL-1β), interleukin 6 (IL-6), and interleukin 8 (IL-8) were quantified by ELISA assay.
(§3) The results are reported expressed as fold change, calculated as the ratio between the values obtained from the respective treatments on the control of inflammation. As such, the fold change is adimensional.

[2] = test system: IL-1β; assay: ELISA of IL-1β in T24 bladder urothelium cells exposed to THP-1 conditioned media; type: cell-based, human; settings: T24 cells 4 h
Protocol: as §1, §2, §3

[3] = test system: transcription factor Nf-kB; assay: Nuclear levels of transcription factor Nf-kB in T24 bladder urothelium cells exposed to THP-1 conditioned media; type: cell-based, human; settings: T24 cells 4 h
Protocol: as §1, §2, §3

[4] = test system: GRO alpha; assay: Cytokine array (23 human cytokines) in T24 bladder urothelium cells exposed to THP-1 conditioned media: GRO alpha; type: cell-based; settings: T24 cells 4 h
Protocol: as §1, §2, §3

[5] = test system: IL-6; assay: ELISA of IL-6 in T24 bladder urothelium cells exposed to THP-1 conditioned media; type: cell-based, human; settings: T24 cells 4 h
Protocol: as §1, §2, §3

[6] = test system: IL-8; assay: ELISA of IL-8 in T24 bladder urothelium cells exposed to THP-1 conditioned media; type: cell-based, human; settings: T24 cells 4 h
Protocol: as §1, §2, §3

[7] = test system: GRO a/b/g; assay: Cytokine array (23 human cytokines) in T24 bladder urothelium cells exposed to THP-1 conditioned media: GRO a/b/g; type: cell-based; settings: T24 cells 4 h
Protocol: as §1, §2, §3

[8] = test system: THP-1 differentiated into macrophages; assay: Cytotoxicity / cell viability of differentiated THP-1 in the presence of E. coli (ATP assay); type: cell-based; settings: 2 h pre-treatment + 6 h E. coli
Protocol: Human THP-1 monocytes (ATCC® TIB-202TM) were maintained in THP-1 complete medium (THP-1 CCM) and cultured in a controlled atmosphere at 37 °C. Differentiation into macrophages was induced by incubation with phorbol myristate acetate (PMA) for 24 h. The culture medium was then replaced and the cells left with fresh medium for another 24 h before being exposed to the three functional ingredients, their MIX and the inflammatory stimulus, E. coli.
The cytotoxicity of the three functional ingredients and their MIX was evaluated on a THP-1 immune system model differentiated into macrophages. Based on the method of intake of the formulation, a digestion volume of 2 liters was considered in order to mimic as much as possible the physiological condition of the average volume of liquid contained in the stomach during the digestive process. Cytotoxicity was carried out by constructing a dose-response curve at increasing concentrations of the individual functional ingredients and the MIX in order to identify the maximum concentration usable for subsequent tests. The following concentrations were therefore tested on THP-1: from 50 µg/mL to 600 µg/mL for PEA, from 1.25 µg/mL to 15 µg/mL for DRY MARITIME PINE EXTRACT, from 6.25 µg/mL to 75 µg/mL for HEMP OIL and from 57.5 µg/mL to 690 µg/mL for the MIX. Based on the results of the dose-response curves, cell viability analysis was not performed at higher concentrations due to mortality caused by the mixture at the highest concentration tested. The concentrations used for subsequent experiments were selected in this concentration range. The three functional ingredients and the MIX were dissolved in THP-1 CCM in the absence of antibiotic and in the presence of 1.18 mg/mL of bile as surfactant. The suspensions were incubated under stirring overnight to increase the passage of the functional ingredients into solution and, the following day, the THP-1 cells were washed with Hank's Balanced Salt Solution (HBSS) and pre-treated for 2 h with the different concentrations of the individual functional ingredients and the MIX. At the end of this incubation, the pro-inflammatory stimulus E. coli (1 × 10^6 CFU/mL) was added to the treated cells for a further 6 h. Cells treated only with E. coli were used as a negative control, while cells treated with 10 µM staurosporine were used as a positive cell death control. At the end of the 8 h of treatment, cell viability was assessed by ATP assay (PerkinElmer) to avoid any possible interference from the bacteria present that may occur using other tests such as MTS.

[9] = Condition 1: MICRONIZED PEA 600, MARITIME PINE EXTRACT 15, HEMP OIL 75, MIX 690 µg/mL (1200, 30, 150, 1380 mg)
[10] = Condition 2: MICRONIZED PEA 400, MARITIME PINE EXTRACT 10, HEMP OIL 50, MIX 460 µg/mL (800, 20, 100, 920 mg)
[11] = Condition 3: MICRONIZED PEA 200, MARITIME PINE EXTRACT 5, HEMP OIL 25, MIX 230 µg/mL (400, 10, 50, 460 mg)
[12] = Condition 4: MICRONIZED PEA 100, MARITIME PINE EXTRACT 2.5, HEMP OIL 12.5, MIX 115 µg/mL (200, 5, 25, 230 mg)
[13] = Condition 5: MICRONIZED PEA 50, MARITIME PINE EXTRACT 1.25, HEMP OIL 6.25, MIX 57.5 µg/mL (100, 2.5, 12.5, 115 mg)
[14] = Condition 6: MICRONIZED PEA 25, MARITIME PINE EXTRACT 0.625, HEMP OIL 3.125, MIX 28.75 µg/mL (50, 1.25, 6.25, 57.5 mg)

## CCCCCCCCCCCCCCCC(=O)NCCO [MICRONIZED PEA, palmitoylethanolamide]
[1]; [9]
  GM-CSF fold change vs control: 1.01 Fold change
[1]; [10]
  GM-CSF fold change vs control: 1.1 Fold change
[1]; [11]
  GM-CSF fold change vs control: 0.9 Fold change
[1]; [12]
  GM-CSF fold change vs control: 0.21 Fold change
[1]; [13]
  GM-CSF fold change vs control: 1.15 Fold change
[1]; [14]
  GM-CSF fold change vs control: 1.19 Fold change
[2]; [9]
  IL-1β (Fold change vs Control) Average: 0.14 Fold change
[2]; [10]
  IL-1β (Fold change vs Control) Average: 0.25 Fold change
[2]; [11]
  IL-1β (Fold change vs Control) Average: 0.15 Fold change
[2]; [12]
  IL-1β (Fold change vs Control) Average: 0.25 Fold change
[2]; [13]
  IL-1β (Fold change vs Control) Average: 0.30 Fold change
[2]; [14]
  IL-1β (Fold change vs Control) Average: 0.30 Fold change
[3]; [9]
  Nf-kB (Fold change vs Control) Average: 2.89 Fold change
[3]; [10]
  Nf-kB (Fold change vs Control) Average: 6.16 Fold change
[3]; [11]
  Nf-kB (Fold change vs Control) Average: 0.12 Fold change
[3]; [12]
  Nf-kB (Fold change vs Control) Average: 0.75 Fold change
[3]; [13]
  Nf-kB (Fold change vs Control) Average: 0.57 Fold change
[3]; [14]
  Nf-kB (Fold change vs Control) Average: 0.43 Fold change
[3]; result in words, over the concentrations tested
  Nf-kB levels (nuclear translocation): reduces the nuclear translocation of the transcription factor NF-κB starting from 25 µg/mL (50 mg) up to 200 µg/mL (400 mg)
[4]; [9]
  GRO alpha (Fold change vs Control) Average: 1.49 Fold change
[4]; [10]
  GRO alpha (Fold change vs Control) Average: 0.79 Fold change
[4]; [11]
  GRO alpha (Fold change vs Control) Average: 1.28 Fold change
[4]; [12]
  GRO alpha (Fold change vs Control) Average: 1.23 Fold change
[4]; [13]
  GRO alpha (Fold change vs Control) Average: 0.91 Fold change
[4]; [14]
  GRO alpha (Fold change vs Control) Average: 1.17 Fold change
[5]; [9]
  IL-6 (Fold change vs Control) Average: 0.48 Fold change
[5]; [10]
  IL-6 (Fold change vs Control) Average: 0.34 Fold change
[5]; [11]
  IL-6 (Fold change vs Control) Average: 0.34 Fold change
[5]; [12]
  IL-6 (Fold change vs Control) Average: 0.33 Fold change
[5]; [13]
  IL-6 (Fold change vs Control) Average: 0.38 Fold change
[5]; [14]
  IL-6 (Fold change vs Control) Average: 0.45 Fold change
[6]; [9]
  IL-8 (Fold change vs Control) Average: 0.55 Fold change
[6]; [10]
  IL-8 (Fold change vs Control) Average: 0.49 Fold change
[6]; [11]
  IL-8 (Fold change vs Control) Average: 0.51 Fold change
[6]; [12]
  IL-8 (Fold change vs Control) Average: 0.54 Fold change
[6]; [13]
  IL-8 (Fold change vs Control) Average: 0.68 Fold change
[6]; [14]
  IL-8 (Fold change vs Control) Average: 0.69 Fold change
[7]; [9]
  GRO a/b/g (Fold change vs Control) Average: 1.14 Fold change
[7]; [10]
  GRO a/b/g (Fold change vs Control) Average: 0.92 Fold change
[7]; [11]
  GRO a/b/g (Fold change vs Control) Average: 0.81 Fold change
[7]; [12]
  GRO a/b/g (Fold change vs Control) Average: 0.58 Fold change
[7]; [13]
  GRO a/b/g (Fold change vs Control) Average: 1 Fold change
[7]; [14]
  GRO a/b/g (Fold change vs Control) Average: 1.13 Fold change
[8]; MICRONIZED PEA 50 µg/mL (100 mg)
  Viability: 73.2 ± 9.5%
[8]; MICRONIZED PEA 100 µg/mL (200 mg)
  Viability: 106.5 ± 5.6%
[8]; MICRONIZED PEA 300 µg/mL (600 mg)
  Viability: 86.5 ± 5.9%
[8]; MICRONIZED PEA 500 µg/mL (1000 mg)
  Viability: 71.9 ± 1.3%
[8]; MICRONIZED PEA 600 µg/mL (1200 mg)
  Viability: 73.9 ± 19.5%
